Data reported in ChEMBL document CHEMBL5058642, “Data for DCP probe TP-051” (2022).

Experiments:
[1] = target: 5-hydroxytryptamine receptor 4 (Homo sapiens) (UniProt Q13639); test: Inhibition of Serotonin (5-Hydroxytryptamine) 5-HT4 at 10 µM in the Eurofins-Panlabs radioligand binding assay (Eurofins_assay_272000); details: Cavia porcellus; Compound concentration 10.0 uM
Homo sapiens [2] = species on record: Homo sapiens; test: Estrogen ERbeta Eurofins-Panlabs radioligand binding assay; details: Compound concentration 10.0 uM
[3] = target: T1, Sodium-dependent dopamine transporter (Homo sapiens, UniProt Q01959); details: Compound concentration 10.0 uM
T1 sequence (Q01959 whole entry): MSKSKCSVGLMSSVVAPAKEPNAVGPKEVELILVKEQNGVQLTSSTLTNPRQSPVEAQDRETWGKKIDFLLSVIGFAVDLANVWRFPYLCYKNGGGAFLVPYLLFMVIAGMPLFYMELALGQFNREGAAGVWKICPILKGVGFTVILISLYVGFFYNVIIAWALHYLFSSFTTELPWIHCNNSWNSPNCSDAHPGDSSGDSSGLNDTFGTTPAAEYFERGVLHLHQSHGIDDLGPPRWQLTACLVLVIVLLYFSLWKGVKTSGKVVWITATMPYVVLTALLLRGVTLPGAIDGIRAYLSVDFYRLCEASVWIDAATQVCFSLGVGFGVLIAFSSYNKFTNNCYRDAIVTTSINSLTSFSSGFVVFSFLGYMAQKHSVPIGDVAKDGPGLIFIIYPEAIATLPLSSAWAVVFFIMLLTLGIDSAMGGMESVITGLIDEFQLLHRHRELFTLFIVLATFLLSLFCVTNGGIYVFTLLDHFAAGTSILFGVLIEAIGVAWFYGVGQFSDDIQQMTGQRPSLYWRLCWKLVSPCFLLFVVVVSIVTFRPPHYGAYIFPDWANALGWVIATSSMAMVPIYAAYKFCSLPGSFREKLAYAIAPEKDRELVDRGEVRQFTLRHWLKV

[4] = target: Glucocorticoid receptor (Homo sapiens) (UniProt P04150); test: Glucocorticoid Eurofins-Panlabs radioligand binding assay; details: Compound concentration 10.0 uM
Glucocorticoid receptor (Homo sapiens), sequence (P04150 whole entry): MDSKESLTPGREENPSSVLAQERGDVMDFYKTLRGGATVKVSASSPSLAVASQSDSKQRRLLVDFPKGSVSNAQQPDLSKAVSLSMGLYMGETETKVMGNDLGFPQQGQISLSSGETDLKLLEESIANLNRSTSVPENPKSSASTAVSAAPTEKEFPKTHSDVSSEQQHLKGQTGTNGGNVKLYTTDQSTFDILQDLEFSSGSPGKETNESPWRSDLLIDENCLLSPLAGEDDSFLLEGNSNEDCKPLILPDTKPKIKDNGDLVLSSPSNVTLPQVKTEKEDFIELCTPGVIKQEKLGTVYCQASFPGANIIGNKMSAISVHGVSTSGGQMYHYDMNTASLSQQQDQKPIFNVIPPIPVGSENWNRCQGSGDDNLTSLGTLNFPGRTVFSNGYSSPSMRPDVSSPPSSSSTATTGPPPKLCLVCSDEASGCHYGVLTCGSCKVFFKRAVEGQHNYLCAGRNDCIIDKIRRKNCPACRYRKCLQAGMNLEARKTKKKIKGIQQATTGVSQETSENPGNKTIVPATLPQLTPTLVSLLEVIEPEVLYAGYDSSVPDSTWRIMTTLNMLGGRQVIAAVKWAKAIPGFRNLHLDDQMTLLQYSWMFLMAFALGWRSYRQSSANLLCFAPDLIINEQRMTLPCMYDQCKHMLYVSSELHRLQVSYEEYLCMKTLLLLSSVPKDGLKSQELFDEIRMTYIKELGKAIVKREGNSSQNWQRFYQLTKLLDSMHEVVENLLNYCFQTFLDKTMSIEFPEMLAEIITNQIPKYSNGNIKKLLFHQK

Rattus norvegicus [5] = species on record: Rattus norvegicus; test: Serotonin (5-Hydroxytryptamine) 5-HT1, Non-Selective Eurofins-Panlabs radioligand binding assay; assay type: protein assay; details: Compound concentration 10.0 uM
[6] = target: 5-hydroxytryptamine receptor 1B (Homo sapiens) (UniProt P28222); details: Compound concentration 10.0 uM
[7] = target: Voltage-dependent N-type calcium channel subunit alpha-1B (Homo sapiens) (UniProt Q00975); test: Inhibition of Calcium Channel N-Type at 10 µM in the Eurofins-Panlabs radioligand binding assay (Eurofins_assay_216000); details: Rattus norvegicus; Compound concentration 10.0 uM
Rattus norvegicus [8] = species on record: Rattus norvegicus; test: Testosterone Eurofins-Panlabs radioligand binding assay; set-up: ligand concentration 1.5 nM; details: Compound concentration 10.0 uM
[9] = target: Beta-1 adrenergic receptor (Homo sapiens) (UniProt P08588); details: Compound concentration 10.0 uM
[10] = target: Mu-type opioid receptor (Homo sapiens) (UniProt P35372); details: Compound concentration 10.0 uM
Mu-type opioid receptor (Homo sapiens), sequence (P35372 whole entry): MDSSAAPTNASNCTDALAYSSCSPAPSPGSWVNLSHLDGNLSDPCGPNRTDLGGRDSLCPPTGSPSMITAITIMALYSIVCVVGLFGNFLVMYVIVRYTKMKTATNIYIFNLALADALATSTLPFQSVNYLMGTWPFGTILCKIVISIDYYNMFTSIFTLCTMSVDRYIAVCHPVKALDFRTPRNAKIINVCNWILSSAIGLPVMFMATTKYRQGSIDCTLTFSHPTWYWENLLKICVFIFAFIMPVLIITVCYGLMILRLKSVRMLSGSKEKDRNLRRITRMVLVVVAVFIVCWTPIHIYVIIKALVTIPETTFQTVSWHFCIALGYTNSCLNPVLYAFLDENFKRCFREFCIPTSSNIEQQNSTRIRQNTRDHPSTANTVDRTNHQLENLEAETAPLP

[11] = target: T1, Sodium-dependent dopamine transporter; details: Compound concentration 10.0 uM; remark: listed apart in the source
[12] = target: 5-hydroxytryptamine receptor 1A (Homo sapiens) (UniProt P08908); details: Compound concentration 10.0 uM
5-hydroxytryptamine receptor 1A (Homo sapiens), sequence (P08908 whole entry): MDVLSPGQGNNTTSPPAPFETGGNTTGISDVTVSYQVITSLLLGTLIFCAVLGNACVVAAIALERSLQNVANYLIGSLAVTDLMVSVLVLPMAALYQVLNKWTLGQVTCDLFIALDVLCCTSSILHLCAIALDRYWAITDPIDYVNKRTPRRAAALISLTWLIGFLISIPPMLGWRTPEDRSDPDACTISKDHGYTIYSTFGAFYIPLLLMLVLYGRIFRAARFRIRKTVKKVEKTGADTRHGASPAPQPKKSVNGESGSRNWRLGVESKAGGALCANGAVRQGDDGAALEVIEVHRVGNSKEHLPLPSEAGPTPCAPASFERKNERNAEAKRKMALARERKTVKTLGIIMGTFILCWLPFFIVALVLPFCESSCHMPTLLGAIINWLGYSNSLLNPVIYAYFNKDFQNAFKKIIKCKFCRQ

[13] = target: Histamine H2 receptor (Homo sapiens) (UniProt P25021); details: Compound concentration 10.0 uM
[14] = target: D(1B) dopamine receptor (Homo sapiens) (UniProt P21918); details: Compound concentration 10.0 uM
D(3) dopamine receptor = D(3) dopamine receptor (Homo sapiens, UniProt P35462); details: Compound concentration 10.0 uM
[15] = target: Adenosine receptor A1 (Homo sapiens) (UniProt P30542); details: Compound concentration 10.0 uM
[16] = target: Endothelin-1 receptor (Homo sapiens) (UniProt P25101); details: Compound concentration 10.0 uM
[17] = target: Beta-3 adrenergic receptor (Homo sapiens) (UniProt P13945); details: Compound concentration 10.0 uM
Beta-3 adrenergic receptor (Homo sapiens), sequence (P13945 whole entry, looked up): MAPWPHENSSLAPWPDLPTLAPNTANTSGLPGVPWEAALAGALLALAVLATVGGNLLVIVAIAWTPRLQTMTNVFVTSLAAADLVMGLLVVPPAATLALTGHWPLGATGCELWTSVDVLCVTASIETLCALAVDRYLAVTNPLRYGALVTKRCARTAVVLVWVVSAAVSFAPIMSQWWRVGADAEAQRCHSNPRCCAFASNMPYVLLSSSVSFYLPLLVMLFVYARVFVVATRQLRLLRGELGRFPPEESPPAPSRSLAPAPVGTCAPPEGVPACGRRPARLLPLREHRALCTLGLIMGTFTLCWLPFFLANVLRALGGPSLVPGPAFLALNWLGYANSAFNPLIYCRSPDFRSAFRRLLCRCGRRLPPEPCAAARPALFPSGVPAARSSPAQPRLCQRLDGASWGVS

[18] = target: Estrogen receptor (Homo sapiens) (UniProt P03372); details: Compound concentration 10.0 uM
Estrogen receptor (Homo sapiens), sequence (P03372 whole entry): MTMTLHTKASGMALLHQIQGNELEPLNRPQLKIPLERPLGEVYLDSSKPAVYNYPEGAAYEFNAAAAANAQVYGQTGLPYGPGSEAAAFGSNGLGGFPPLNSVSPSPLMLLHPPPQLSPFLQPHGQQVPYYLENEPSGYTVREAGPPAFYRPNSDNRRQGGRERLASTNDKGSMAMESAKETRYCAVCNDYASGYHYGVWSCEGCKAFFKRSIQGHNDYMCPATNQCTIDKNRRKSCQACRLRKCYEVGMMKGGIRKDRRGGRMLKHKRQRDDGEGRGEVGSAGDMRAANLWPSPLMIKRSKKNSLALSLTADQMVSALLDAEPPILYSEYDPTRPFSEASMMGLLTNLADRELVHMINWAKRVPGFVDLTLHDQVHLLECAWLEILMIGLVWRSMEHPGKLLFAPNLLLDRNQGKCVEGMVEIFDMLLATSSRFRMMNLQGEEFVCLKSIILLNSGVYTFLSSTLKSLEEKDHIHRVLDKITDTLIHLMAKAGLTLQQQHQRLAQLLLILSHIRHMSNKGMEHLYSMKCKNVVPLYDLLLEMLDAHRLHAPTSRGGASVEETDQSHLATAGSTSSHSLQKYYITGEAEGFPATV

[19] = target: T2, D(4) dopamine receptor (Homo sapiens) (UniProt P21917); details: Compound concentration 10.0 uM
T2 sequence (whole entry): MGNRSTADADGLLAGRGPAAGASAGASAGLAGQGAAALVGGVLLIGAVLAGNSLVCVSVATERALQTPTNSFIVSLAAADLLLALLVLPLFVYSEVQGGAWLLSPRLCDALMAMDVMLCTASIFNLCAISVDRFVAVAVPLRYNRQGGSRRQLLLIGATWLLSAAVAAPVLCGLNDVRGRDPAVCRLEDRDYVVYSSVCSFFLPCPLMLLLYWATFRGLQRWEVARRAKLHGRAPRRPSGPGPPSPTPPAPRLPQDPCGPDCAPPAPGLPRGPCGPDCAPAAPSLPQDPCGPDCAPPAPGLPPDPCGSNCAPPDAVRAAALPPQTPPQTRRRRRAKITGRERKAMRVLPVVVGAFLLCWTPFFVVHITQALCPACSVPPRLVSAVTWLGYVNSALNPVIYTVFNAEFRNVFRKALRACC

[20] = target: Kappa-type opioid receptor (Homo sapiens) (UniProt P41145); details: Compound concentration 10.0 uM
Kappa-type opioid receptor (Homo sapiens), sequence (P41145 whole entry): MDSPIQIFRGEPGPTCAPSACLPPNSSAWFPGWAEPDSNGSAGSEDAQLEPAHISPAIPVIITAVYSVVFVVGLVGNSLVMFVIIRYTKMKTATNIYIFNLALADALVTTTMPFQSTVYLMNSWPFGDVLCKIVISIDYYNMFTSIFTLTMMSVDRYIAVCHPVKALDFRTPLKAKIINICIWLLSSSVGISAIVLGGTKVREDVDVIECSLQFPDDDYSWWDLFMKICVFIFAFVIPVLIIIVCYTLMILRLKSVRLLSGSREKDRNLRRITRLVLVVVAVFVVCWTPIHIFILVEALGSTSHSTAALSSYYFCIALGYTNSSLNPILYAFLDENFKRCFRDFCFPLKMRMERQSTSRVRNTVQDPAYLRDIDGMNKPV

Rattus norvegicus [21] = species on record: Rattus norvegicus; test: Inhibition of Glutamate, NMDA, Phencyclidine at 10 µM in the Eurofins-Panlabs radioligand binding assay (Eurofins_assay_233000); assay type: protein-complex assay; details: Compound concentration 10.0 uM
Homo sapiens [22] = species on record: Homo sapiens; test: Somatostatin sst2 Eurofins-Panlabs radioligand binding assay; set-up: ligand concentration 0.03 nM; details: Compound concentration 10.0 uM
[23] = target: Cholecystokinin receptor type A (Homo sapiens) (UniProt P32238); test: Inhibition of Cholecystokinin CCK1 (CCKA) at 10 µM in the Eurofins-Panlabs radioligand binding assay (Eurofins_assay_218020); details: Compound concentration 10.0 uM
[24] = target: Type-1 angiotensin II receptor (Homo sapiens) (UniProt P30556); test: Angiotensin AT1 Eurofins-Panlabs radioligand binding assay; details: Compound concentration 10.0 uM
Rattus norvegicus [25] = species on record: Rattus norvegicus; test: Inhibition of Imidazoline I2, Central at 10 µM in the Eurofins-Panlabs radioligand binding assay (Eurofins_assay_241000); set-up: ligand concentration 2 nM; details: Compound concentration 10.0 uM
[26] = target: Mu-type opioid receptor (Homo sapiens) (UniProt P35372); details: Compound concentration 10.0 uM; remark: listed apart in the source
[27] = target: Endothelin receptor type B (Homo sapiens) (UniProt P24530); details: Compound concentration 10.0 uM
[28] = target: Histamine H4 receptor (Homo sapiens) (UniProt Q9H3N8); details: Compound concentration 10.0 uM
Histamine H4 receptor (Homo sapiens), sequence (Q9H3N8 whole entry): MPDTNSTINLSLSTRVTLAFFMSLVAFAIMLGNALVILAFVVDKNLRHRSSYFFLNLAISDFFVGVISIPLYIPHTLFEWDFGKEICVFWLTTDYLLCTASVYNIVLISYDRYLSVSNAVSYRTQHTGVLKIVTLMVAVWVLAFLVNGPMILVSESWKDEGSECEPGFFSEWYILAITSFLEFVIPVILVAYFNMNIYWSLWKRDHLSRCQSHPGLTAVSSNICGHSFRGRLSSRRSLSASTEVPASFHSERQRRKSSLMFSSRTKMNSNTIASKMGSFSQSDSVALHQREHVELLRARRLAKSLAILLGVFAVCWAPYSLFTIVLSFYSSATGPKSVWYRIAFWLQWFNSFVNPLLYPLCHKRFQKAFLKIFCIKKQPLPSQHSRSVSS

[29] = target: B1 bradykinin receptor (Homo sapiens) (UniProt P46663); test: Inhibition of Bradykinin B1 at 10 µM in the Eurofins-Panlabs radioligand binding assay (Eurofins_assay_212510); details: Compound concentration 10.0 uM
[30] = target: Adenosine receptor A2a (Homo sapiens) (UniProt P29274); details: Compound concentration 10.0 uM
[31] = target: Growth hormone secretagogue receptor type 1 (Homo sapiens) (UniProt Q92847); details: Compound concentration 10.0 uM
Rattus norvegicus [32] = species on record: Rattus norvegicus; test: Adrenergic α1, Non-selective Eurofins-Panlabs radioligand binding assay; assay type: protein assay; details: Compound concentration 10.0 uM
[33] = target: Gamma-aminobutyric acid type B receptor subunit 1 (Homo sapiens) (UniProt Q9UBS5); test: GABAB1A Eurofins-Panlabs radioligand binding assay; details: Compound concentration 10.0 uM
Gamma-aminobutyric acid type B receptor subunit 1 (Homo sapiens), sequence (Q9UBS5 whole entry): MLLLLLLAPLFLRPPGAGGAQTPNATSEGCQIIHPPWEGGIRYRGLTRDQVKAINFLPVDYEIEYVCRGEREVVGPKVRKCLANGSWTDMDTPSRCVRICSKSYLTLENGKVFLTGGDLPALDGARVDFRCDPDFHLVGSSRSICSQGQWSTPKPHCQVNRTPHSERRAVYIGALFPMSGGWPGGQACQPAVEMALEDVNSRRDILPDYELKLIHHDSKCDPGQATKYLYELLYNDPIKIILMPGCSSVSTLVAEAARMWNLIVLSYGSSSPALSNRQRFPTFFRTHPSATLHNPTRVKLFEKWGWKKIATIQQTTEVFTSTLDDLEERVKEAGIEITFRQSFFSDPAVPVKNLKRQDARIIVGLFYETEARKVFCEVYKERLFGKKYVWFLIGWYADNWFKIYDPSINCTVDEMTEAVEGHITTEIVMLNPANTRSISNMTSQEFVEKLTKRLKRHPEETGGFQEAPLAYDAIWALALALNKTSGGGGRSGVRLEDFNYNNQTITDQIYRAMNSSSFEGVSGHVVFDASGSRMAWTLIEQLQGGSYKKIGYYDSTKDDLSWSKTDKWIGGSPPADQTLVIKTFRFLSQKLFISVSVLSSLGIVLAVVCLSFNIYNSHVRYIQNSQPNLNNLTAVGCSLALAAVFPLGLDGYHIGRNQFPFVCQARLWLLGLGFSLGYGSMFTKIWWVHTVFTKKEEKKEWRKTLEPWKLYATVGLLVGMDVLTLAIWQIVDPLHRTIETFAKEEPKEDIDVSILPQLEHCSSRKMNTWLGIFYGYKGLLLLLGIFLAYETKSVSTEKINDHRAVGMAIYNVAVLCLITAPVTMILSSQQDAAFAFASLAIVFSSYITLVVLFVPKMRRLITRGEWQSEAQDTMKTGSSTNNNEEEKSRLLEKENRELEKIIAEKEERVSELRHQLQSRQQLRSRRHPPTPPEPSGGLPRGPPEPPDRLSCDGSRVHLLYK

[34] = target: T3, Muscarinic acetylcholine receptor M2 (Homo sapiens) (UniProt P08172); test: Muscarinic M2 Eurofins-Panlabs radioligand binding assay; details: Compound concentration 10.0 uM
T3 sequence (whole entry): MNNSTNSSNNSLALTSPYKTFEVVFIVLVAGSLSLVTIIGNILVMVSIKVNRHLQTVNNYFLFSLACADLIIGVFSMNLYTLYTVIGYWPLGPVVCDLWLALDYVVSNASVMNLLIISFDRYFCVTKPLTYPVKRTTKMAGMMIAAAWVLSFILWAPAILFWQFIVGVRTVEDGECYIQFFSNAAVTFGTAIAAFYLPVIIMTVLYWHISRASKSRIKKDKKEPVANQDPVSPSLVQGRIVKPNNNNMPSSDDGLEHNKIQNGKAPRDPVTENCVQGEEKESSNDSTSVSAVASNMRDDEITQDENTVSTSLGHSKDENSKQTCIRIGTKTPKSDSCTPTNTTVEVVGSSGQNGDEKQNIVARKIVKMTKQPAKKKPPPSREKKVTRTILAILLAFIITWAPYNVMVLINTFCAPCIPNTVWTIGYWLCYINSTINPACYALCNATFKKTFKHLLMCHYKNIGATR

Structure (SMILES)	inhibition [1]	inhibition (Homo sapiens [2])	inhibition [3]	inhibition [4]	inhibition (Rattus norvegicus [5])	inhibition [6]	inhibition [7]	inhibition (Rattus norvegicus [8])	inhibition [9]	inhibition [10]	inhibition [11]	inhibition [12]	inhibition [13]	inhibition [14]	inhibition (D(3) dopamine receptor)	inhibition [15]	inhibition [16]	inhibition [17]	inhibition [18]	inhibition [19]	other results
Cc1cc(OC2CCS(=O)(=O)CC2)cc(C)c1-c1cccc(COc2ccc(C(=O)O)c(F)c2)c1	-8%	8%	-8%	14%	-9%	23.2%	-9%	26%	-4%	10%	42.2%	-6.09%	2%	17.5%	4%	-4%	-2%	-3%	7%	7.27%	inhibition [20]: 4.04%; inhibition (Rattus norvegicus [21]): 5%; inhibition (Homo sapiens [22]): -6%; inhibition [23]: -9%; inhibition [24]: 1%; inhibition (Rattus norvegicus [25]): 3%; inhibition [26]: -7.84%; inhibition [27]: 15%; inhibition [28]: 17.4%; inhibition [29]: 19%; inhibition [30]: 10%; inhibition [31]: -1%; inhibition (Rattus norvegicus [32]): -1%; inhibition [33]: 20%; inhibition [34]: -3%
Cc1cc(OC2CCS(=O)(=O)CC2)cc(C)c1-c1cccc(COc2ccc(CCC(=O)O)c(F)c2)c1	8%	20%	5%	0%	16%	19.3%	-4%	17%	5%	5%	53.7%	1.37%	26%	32.2%	-7%	-1%	-2%	15%	3%	85.4%	inhibition [20]: 10.2%; inhibition (Rattus norvegicus [21]): -4%; inhibition (Homo sapiens [22]): 5%; inhibition [23]: 4%; inhibition [24]: 14%; inhibition (Rattus norvegicus [25]): -7%; inhibition [26]: 1.32%; inhibition [27]: 0%; inhibition [28]: 10.8%; inhibition [29]: 14%; inhibition [30]: 5%; inhibition [31]: 2%; inhibition (Rattus norvegicus [32]): -2%; inhibition [33]: 7%; inhibition [34]: 4%
